In patent publication US20250127176A1 (priority 2021, published 2025):
Where two headings read alike, the source gives them in different places.

Key:
[1] = system: late blight of potato (Phytophthora infestans); assay type: in vivo
late blight of potato = assay type: in vivo, Phytophthora infestans; conditions: T4: foliar spray, 7 days interval; 0.8 ml/L
[2] = T3: foliar spray 30, 45, 60 and 75th day, dose 2.0 mL/Litre
[3] = T4: foliar spray 30, 45, 60 and 75th day, dose 2 g/lit
[4] = T5: foliar spray 45th day only, dose 2 g/lit

| Compound | Per cent Disease Index (PDI) [1, 2] | Per cent reduction over control [1, 2] | Per cent Disease Index (PDI) (late blight of potato) | Per cent reduction over control (late blight of potato) | Per cent Disease Index (PDI) [1, 3] | Per cent reduction over control [1, 3] | Per cent Disease Index (PDI) [1, 4] | Per cent reduction over control [1, 4] |
| --- | --- | --- | --- | --- | --- | --- | --- | --- |
| C#CCOc1ccc(CCNC(=O)C(OCC#C)c2ccc(Cl)cc2)cc1OC (centres unmarked) [Mandipropamid] | 12.5% | 86.7% | 14.11% | 83.40% |  |  |  |  |
| Mancozeb |  |  |  |  | 15.6% | 83.4% | 45.2% | 51.9% |
